Data published in the NIST ThermoML archive (doi:10.1021/acs.jced.7b00106).
± gives the expanded uncertainty stated by the source.

Details: Hot wire method

FC(F)(F)/C=C/Cl [(E)-1-chloro-3,3,3-trifluoroprop-1-ene]
Details	thermal conductivity [W/m/K]
334.63 K, 179 kPa, Gas	0.01343 ± 0.00048
334.73 K, 328 kPa, Gas	0.01333 ± 0.00047
334.82 K, 112 kPa, Gas	0.01357 ± 0.00048
334.91 K, 97 kPa, Gas	0.01369 ± 0.00048
334.92 K, 253 kPa, Gas	0.0134 ± 0.00047
335.16 K, 178 kPa, Gas	0.01354 ± 0.00048
335.37 K, 112 kPa, Gas	0.01364 ± 0.00048
335.44 K, 97 kPa, Gas	0.01368 ± 0.00048
335.71 K, 176 kPa, Gas	0.01352 ± 0.00048
336 K, 98 kPa, Gas	0.01372 ± 0.00048
336.29 K, 176 kPa, Gas	0.01354 ± 0.00048
341.04 K, 7818 kPa, Liquid	0.07607 ± 0.008
341.05 K, 502 kPa, Liquid	0.07132 ± 0.0076
341.06 K, 4000 kPa, Liquid	0.07359 ± 0.0035
341.11 K, 4008 kPa, Liquid	0.07339 ± 0.0022
341.11 K, 7812 kPa, Liquid	0.07571 ± 0.0023
341.12 K, 503 kPa, Liquid	0.07103 ± 0.0042
341.12 K, 34293 kPa, Liquid	0.08893 ± 0.012
341.19 K, 34283 kPa, Liquid	0.08864 ± 0.0099
341.28 K, 19052 kPa, Liquid	0.08179 ± 0.0031
341.29 K, 26074 kPa, Liquid	0.08503 ± 0.0057
341.35 K, 19044 kPa, Liquid	0.08181 ± 0.0025
341.36 K, 12813 kPa, Liquid	0.07865 ± 0.0026
341.37 K, 26069 kPa, Liquid	0.08479 ± 0.0053
341.4 K, 7815 kPa, Liquid	0.07567 ± 0.0049
341.42 K, 3996 kPa, Liquid	0.0734 ± 0.006
341.44 K, 510 kPa, Liquid	0.07095 ± 0.005
341.44 K, 12800 kPa, Liquid	0.07849 ± 0.0032
341.47 K, 114 kPa, Gas	0.01391 ± 0.0005
341.48 K, 7806 kPa, Liquid	0.07567 ± 0.0039
341.5 K, 113 kPa, Gas	0.01391 ± 0.00049
341.5 K, 182 kPa, Gas	0.01442 ± 0.00051
341.5 K, 4008 kPa, Liquid	0.07332 ± 0.0028
341.53 K, 498 kPa, Liquid	0.07081 ± 0.0051
341.53 K, 53967 kPa, Liquid	0.09634 ± 0.0074
341.54 K, 65483 kPa, Liquid	0.1004 ± 0.0035
341.56 K, 117 kPa, Gas	0.01424 ± 0.00051
341.57 K, 34287 kPa, Liquid	0.08857 ± 0.0051
341.61 K, 65470 kPa, Liquid	0.1001 ± 0.0046
341.62 K, 53976 kPa, Liquid	0.09608 ± 0.0039
341.73 K, 464 kPa, Gas	0.01417 ± 0.001
341.74 K, 113 kPa, Gas	0.01377 ± 0.00049
341.74 K, 256 kPa, Gas	0.01435 ± 0.00052
341.76 K, 26067 kPa, Liquid	0.08459 ± 0.0026
341.77 K, 19040 kPa, Liquid	0.08164 ± 0.0031
341.78 K, 181 kPa, Gas	0.01434 ± 0.00051
341.79 K, 114 kPa, Gas	0.0139 ± 0.00052
341.8 K, 177 kPa, Gas	0.01425 ± 0.0005
341.82 K, 7816 kPa, Liquid	0.0756 ± 0.0028
341.84 K, 117 kPa, Gas	0.01379 ± 0.00049
341.84 K, 465 kPa, Gas	0.01387 ± 0.0011
341.84 K, 4002 kPa, Liquid	0.07296 ± 0.0032
341.87 K, 26056 kPa, Liquid	0.08482 ± 0.0026
341.88 K, 116 kPa, Gas	0.01443 ± 0.00056
341.88 K, 490 kPa, Liquid	0.07091 ± 0.0024
341.88 K, 12799 kPa, Liquid	0.07857 ± 0.0027
341.88 K, 19048 kPa, Liquid	0.08151 ± 0.0031
341.91 K, 380 kPa, Gas	0.01419 ± 0.0005
341.92 K, 7805 kPa, Liquid	0.07534 ± 0.0029
341.96 K, 4010 kPa, Liquid	0.07316 ± 0.0037
341.98 K, 253 kPa, Gas	0.01421 ± 0.00051
341.99 K, 264 kPa, Gas	0.01423 ± 0.0005
341.99 K, 497 kPa, Liquid	0.07068 ± 0.0024
342 K, 113 kPa, Gas	0.01367 ± 0.00048
342.01 K, 464 kPa, Gas	0.0141 ± 0.001
342.01 K, 65484 kPa, Liquid	0.1003 ± 0.0031
342.02 K, 53960 kPa, Liquid	0.09643 ± 0.0035
342.05 K, 176 kPa, Gas	0.01407 ± 0.0005
342.09 K, 117 kPa, Gas	0.01369 ± 0.00048
342.1 K, 180 kPa, Gas	0.01435 ± 0.00051
342.12 K, 465 kPa, Gas	0.01384 ± 0.00087
342.12 K, 34281 kPa, Liquid	0.08848 ± 0.003
342.12 K, 65469 kPa, Liquid	0.09982 ± 0.0042
342.13 K, 113 kPa, Gas	0.01416 ± 0.0005
342.15 K, 367 kPa, Gas	0.01454 ± 0.00052
342.2 K, 116 kPa, Gas	0.01425 ± 0.00051
342.2 K, 377 kPa, Gas	0.01421 ± 0.0005
342.21 K, 43755 kPa, Liquid	0.09113 ± 0.022
342.24 K, 251 kPa, Gas	0.01415 ± 0.0005
342.24 K, 34289 kPa, Liquid	0.08779 ± 0.0029
342.26 K, 113 kPa, Gas	0.01361 ± 0.00048
342.29 K, 7805 kPa, Liquid	0.07547 ± 0.0024
342.3 K, 262 kPa, Gas	0.01427 ± 0.0005
342.32 K, 4001 kPa, Liquid	0.07309 ± 0.0023
342.32 K, 26065 kPa, Liquid	0.08477 ± 0.0048
342.33 K, 176 kPa, Gas	0.01391 ± 0.00049
342.34 K, 464 kPa, Gas	0.0141 ± 0.00052
342.34 K, 19039 kPa, Liquid	0.08156 ± 0.0069
342.35 K, 118 kPa, Gas	0.01366 ± 0.00048
342.37 K, 497 kPa, Liquid	0.07069 ± 0.0027
342.4 K, 364 kPa, Gas	0.01446 ± 0.00051
342.43 K, 179 kPa, Gas	0.01433 ± 0.00051
342.43 K, 7788 kPa, Liquid	0.07522 ± 0.0025
342.45 K, 465 kPa, Gas	0.01403 ± 0.0005
342.47 K, 113 kPa, Gas	0.01424 ± 0.0005
342.47 K, 12801 kPa, Liquid	0.07827 ± 0.0074
342.48 K, 4008 kPa, Liquid	0.07289 ± 0.0031
342.49 K, 19031 kPa, Liquid	0.08119 ± 0.0067
342.51 K, 249 kPa, Gas	0.01404 ± 0.0005
342.52 K, 491 kPa, Liquid	0.07043 ± 0.0027
342.54 K, 114 kPa, Gas	0.0136 ± 0.00048
342.55 K, 117 kPa, Gas	0.01427 ± 0.0005
342.55 K, 375 kPa, Gas	0.01415 ± 0.0005
342.57 K, 65460 kPa, Liquid	0.1005 ± 0.0031
342.59 K, 175 kPa, Gas	0.01391 ± 0.00049
342.6 K, 53948 kPa, Liquid	0.09634 ± 0.0033
342.61 K, 12792 kPa, Liquid	0.07793 ± 0.0073
342.64 K, 119 kPa, Gas	0.01361 ± 0.00048
342.66 K, 260 kPa, Gas	0.01427 ± 0.0005
342.67 K, 362 kPa, Gas	0.01441 ± 0.00051
342.68 K, 43762 kPa, Liquid	0.09267 ± 0.0056
342.7 K, 464 kPa, Gas	0.01406 ± 0.00052
342.72 K, 65463 kPa, Liquid	0.09997 ± 0.003
342.73 K, 34274 kPa, Liquid	0.08854 ± 0.0037
342.75 K, 53929 kPa, Liquid	0.09616 ± 0.0034
342.8 K, 178 kPa, Gas	0.01445 ± 0.00051
342.8 K, 247 kPa, Gas	0.01402 ± 0.00049
342.8 K, 465 kPa, Gas	0.01412 ± 0.00051
342.8 K, 7784 kPa, Liquid	0.07528 ± 0.0026
342.84 K, 43753 kPa, Liquid	0.09232 ± 0.0066
342.85 K, 113 kPa, Gas	0.01425 ± 0.0005
342.85 K, 114 kPa, Gas	0.01353 ± 0.00048
342.86 K, 4005 kPa, Liquid	0.07287 ± 0.0026
342.89 K, 173 kPa, Gas	0.01384 ± 0.00049
342.9 K, 34279 kPa, Liquid	0.08837 ± 0.0028
342.91 K, 372 kPa, Gas	0.01419 ± 0.0005
342.92 K, 488 kPa, Liquid	0.07046 ± 0.011
342.93 K, 359 kPa, Gas	0.01446 ± 0.00053
342.94 K, 116 kPa, Gas	0.01437 ± 0.00051
342.95 K, 121 kPa, Gas	0.01352 ± 0.00048
343.03 K, 258 kPa, Gas	0.01427 ± 0.0005
343.07 K, 464 kPa, Gas	0.01408 ± 0.0005
343.08 K, 246 kPa, Gas	0.01404 ± 0.0005
343.12 K, 496 kPa, Liquid	0.06933 ± 0.013
343.14 K, 26056 kPa, Liquid	0.08389 ± 0.0026
343.17 K, 65460 kPa, Liquid	0.09977 ± 0.0077
343.19 K, 19024 kPa, Liquid	0.08036 ± 0.0025
343.2 K, 178 kPa, Gas	0.01442 ± 0.00051
343.22 K, 357 kPa, Gas	0.01443 ± 0.00051
343.23 K, 53929 kPa, Liquid	0.09614 ± 0.0085
343.27 K, 113 kPa, Gas	0.01431 ± 0.0005
343.3 K, 370 kPa, Gas	0.01421 ± 0.0005
343.34 K, 43755 kPa, Liquid	0.09204 ± 0.008
343.35 K, 117 kPa, Gas	0.01424 ± 0.0005
343.35 K, 12789 kPa, Liquid	0.07705 ± 0.0025
